In patent publication US20240239755A1, “SUBSTITUTED PYRIDAZINONES, SALTS OR N-OXIDES THEREOF AND THEIR USE AS HERBICIDALLY ACTIVE SUBSTANCES” (Bayer Aktiengesellschaft, priority 2021, published 2024):

Key:
Type in all cases: in vivo
[1] = system: Matricaria inodora (MATIN); assay: Herbicidal pre-emergence action, 1280 g/ha (Table A6); conditions: visual grading after ca. 3 weeks vs untreated controls
How it was run: (§1)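 Seeds are sown and covered with sandy loam soil, then the soil surface is treated with compound suspension or emulsion (0.5% additive, 600 L water/ha). Plants grow in a greenhouse under optimum conditions, and damage is rated visually at ca. 3 weeks against untreated controls.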

[2] = system: Amaranthus retroflexus (AMARE); assay: Herbicidal pre-emergence action, 1280 g/ha (Table A11); conditions: visual grading after ca. 3 weeks vs untreated controls
How it was run: as §1

Lolium rigidum (LOLRI) [3] = assay: Herbicidal pre-emergence action, 1280 g/ha (Table A5); conditions: visual grading after ca. 3 weeks vs untreated controls
How it was run: as §1

Veronica persica (VERPE) [4] = assay: Herbicidal post-emergence action, 1280 g/ha, VERPE; conditions: visual grading vs untreated controls
How it was run: (§2)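 Pot-grown weeds in sandy loam sprayed post-emergence at the single-leaf stage, 2–3 weeks after sowing, with WP or EC formulations plus 0.5% additive in 600 L water/ha at 1280 g/ha. After ca. 3 weeks in the greenhouse, damage scored visually as % effect versus untreated controls (100% = plants dead).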

Kochia scoparia (KCHSC) [5] = assay: Herbicidal post-emergence action, 1280 g/ha (Table B4); conditions: visual assessment after ca. 3 weeks vs untreated controls
How it was run: (§3)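 Post-emergence greenhouse pot test: weeds in sandy loam sprayed at single-leaf stage, 2–3 weeks after sowing, with WP or EC formulations plus 0.5% additive at 600 L water/ha. Effect scored visually ca. 3 weeks later versus untreated controls, 0% = as control, 100% = plants dead.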

Stellaria media (STEME) [6] = assay: Herbicidal post-emergence action, 1280 g/ha (Table B9); conditions: visual assessment after ca. 3 weeks vs untreated controls
How it was run: as §3

Lolium rigidum (LOLRI) [7] = assay: Herbicidal pre-emergence action, 320 g/ha (Table C2); conditions: visual grading after ca. 3 weeks vs untreated controls
How it was run: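 Applied pre-emergence to the surface of soil covering weed seeds sown in sandy loam, as WP or EC formulations in water with 0.5% additive at 600 L/ha. Greenhouse-grown; damage graded visually at ca. 3 weeks as percent of untreated controls (100% = plants died).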

[8] = system: Amaranthus retroflexus (AMARE); assay: Herbicidal post-emergence action, 1280 g/ha, AMARE; conditions: visual grading vs untreated controls
How it was run: as §2

[9] = system: Abutilon theophrasti (ABUTH); assay: Herbicidal post-emergence action, 320 g/ha, ABUTH; conditions: visual grading after ca. 3 weeks
How it was run: (§4)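 Test compounds, formulated as wettable powders or emulsifiable concentrates with 0.5% additive, are sprayed onto green parts of single-leaf-stage weeds at a water volume of 600 L/ha. Percent effect is judged by eye after roughly three weeks under optimum greenhouse conditions.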

[10] = system: Matricaria inodora (MATIN); assay: Herbicidal pre-emergence action, 320 g/ha (Table C3); conditions: visual grading after ca. 3 weeks vs untreated controls
From the text: (§5) Seeds of mono- and dicotyledonous weed plants were sown in plastic pots (double sowings with one species of mono- and one species of dicotyledonous weed plants per pot), in sandy loam, and covered with soil. The compounds according to the invention, formulated in the form of wettable powders (WP) or as emulsifiable concentrates (EC), were applied to the surface of the covering soil as an aqueous suspension or as an emulsion, with the addition of 0.5% of an additive, at an application rate of 600 litres of water per hectare (converted). Following treatment, the pots were placed in a greenhouse and kept under optimum growth conditions for the test plants. The visual grading of the damage to the test plants was carried out after ca. 3 weeks in comparison to untreated controls (herbicidal effect in percent (%): 100% effect=plants have died, 0% effect=as control plants). Tables C1 to C6 below, show the effects of selected compounds of the general formula (I) according to Table 1 on various harmful plants using an application rate corresponding to 320 g/ha obtained by the experimental procedure mentioned above.

[11] = system: Amaranthus retroflexus (AMARE); assay: Herbicidal post-emergence action, 320 g/ha, AMARE; conditions: visual grading after ca. 3 weeks
How it was run: as §4

Kochia scoparia (KCHSC) [12] = assay: Herbicidal pre-emergence action, 1280 g/ha (Table A4); conditions: visual grading after ca. 3 weeks vs untreated controls
How it was run: as §1

Stellaria media (STEME) [13] = assay: Herbicidal pre-emergence action, 320 g/ha, STEME; conditions: visual grading after ca. 3 weeks
How it was run: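 Weed seeds sown in sandy loam pots; WP or EC formulations applied pre-emergence to the covering soil surface at 320 g/ha with 0.5% additive in 600 L water/ha. Greenhouse growth; visual damage scored after ca. 3 weeks versus untreated controls (100% = plants died, 0% = as control).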

[14] = system: Matricaria inodora (MATIN); assay: Herbicidal post-emergence action, 320 g/ha, MATIN; conditions: visual grading after ca. 3 weeks
How it was run: as §4

[15] = system: Matricaria inodora (MATIN); assay: Herbicidal post-emergence action, 1280 g/ha (Table B6); conditions: visual assessment after ca. 3 weeks vs untreated controls
How it was run: as §3

Veronica persica (VERPE) [16] = assay: Herbicidal post-emergence action, 320 g/ha, VERPE; conditions: visual grading after ca. 3 weeks
How it was run: as §4

[17] = system: Abutilon theophrasti (ABUTH); assay: Herbicidal post-emergence action, 1280 g/ha (Table B1); conditions: visual assessment after ca. 3 weeks vs untreated controls
How it was run: as §3

Poa annua (POAAN) = assay: Herbicidal pre-emergence action, 1280 g/ha (Table A7); conditions: visual grading after ca. 3 weeks vs untreated controls
How it was run: as §1

Stellaria media (STEME) [18] = assay: Herbicidal pre-emergence action, 1280 g/ha (Table A9); conditions: visual grading after ca. 3 weeks vs untreated controls
How it was run: as §1

Setaria viridis (SETVI) [19] = assay: Herbicidal pre-emergence action, 1280 g/ha (Table A8); conditions: visual grading after ca. 3 weeks vs untreated controls
How it was run: as §1

[20] = system: Digitaria sanguinalis (DIGSA); assay: Herbicidal post-emergence action, 1280 g/ha (Table B2); conditions: visual assessment after ca. 3 weeks vs untreated controls
From the text: (§6) Seeds of mono- and dicotyledonous weed plants were sown in plastic pots (double sowings with one species of mono- and one species of dicotyledonous weed plants per pot), in sandy loam, covered with soil and grown under controlled growth conditions. 2 to 3 weeks after sowing, the test plants were sprayed in the single-leaf stage. The compounds according to the invention, formulated in the form of wettable powders (WP) or as emulsifiable concentrates (EC), were sprayed onto the green plant parts as an aqueous suspension or as an emulsion, with the addition of 0.5% of an additive, at an application rate of 600 litres of water per hectare (converted). The test plants were placed in the greenhouse for ca. 3 weeks under optimum growth conditions, and then the effect of the preparations was assessed visually in comparison with untreated controls (herbicidal effect in percent (%): 100% effect=plants have died, 0% effect=as control plants). Tables B1 to B11 below, show the effects of selected compounds of the general formula (I) according to Table 1 on various harmful plants using an application rate corresponding to 1280 g/ha obtained by the experimental procedure mentioned above.

Stellaria media (STEME) [21] = assay: Herbicidal post-emergence action, 320 g/ha, STEME; conditions: visual grading after ca. 3 weeks
How it was run: as §4

[22] = system: Abutilon theophrasti (ABUTH); assay: Herbicidal pre-emergence action, 1280 g/ha (Table A1); conditions: visual grading after ca. 3 weeks vs untreated controls
How it was run: as §1

[23] = system: Amaranthus retroflexus (AMARE); assay: Herbicidal pre-emergence action, 320 g/ha, AMARE; conditions: visual grading after ca. 3 weeks
From the text: as §5, with “plants).” for “plants). Tables C1 to C6 below, show the effects of selected compounds of the general formula (I) according to Table 1 on various harmful plants using an application rate corresponding to 320 g/ha obtained by the experimental procedure mentioned above.”
Tables C1 to C6 below, show the effects of selected compounds of the general formula (I) according to Table 1 on various harmful plants using an application rate corresponding to 320 g/ha obtained by the experimental procedure mentioned above.

Lolium rigidum (LOLRI) [24] = assay: Herbicidal post-emergence action, 1280 g/ha (Table B5); conditions: visual assessment after ca. 3 weeks vs untreated controls
How it was run: as §3

Lolium rigidum (LOLRI) [25] = assay: Herbicidal post-emergence action, 320 g/ha, LOLRI; conditions: visual grading after ca. 3 weeks
How it was run: as §4

Veronica persica (VERPE) [26] = assay: Herbicidal pre-emergence action, 1280 g/ha (Table A10); conditions: visual grading after ca. 3 weeks vs untreated controls
From the text: as §5, with “A1” for “C1”, “A11” for “C6”, “and” for “using”, “1280” for “320”

Setaria viridis (SETVI) [27] = assay: Herbicidal post-emergence action, 1280 g/ha (Table B8); conditions: visual assessment after ca. 3 weeks vs untreated controls
How it was run: as §3

[28] = system: Echinochloa crus-galli (ECHCG); assay: Herbicidal post-emergence action, 1280 g/ha (Table B3); conditions: visual assessment after ca. 3 weeks vs untreated controls
From the text: as §6

Compound: Cc1nn(C)c(=O)c(Oc2cc(F)ccc2Br)c1O [Example I-026]
- herbicidal effect MATIN [1]: 100%
- herbicidal effect AMARE [2]: 100%
- herbicidal effect LOLRI (Lolium rigidum (LOLRI) [3]): 100%
- herbicidal effect VERPE (Veronica persica (VERPE) [4]): 90%
- herbicidal effect KCHSC (Kochia scoparia (KCHSC) [5]): 90%
- herbicidal effect STEME (Stellaria media (STEME) [6]): 90%
- herbicidal effect LOLRI (Lolium rigidum (LOLRI) [7]): 90%
- herbicidal effect AMARE [8]: 100%
- herbicidal effect ABUTH [9]: 90%
- herbicidal effect MATIN [10]: 90%
- herbicidal effect AMARE [11]: 90%
- herbicidal effect KCHSC (Kochia scoparia (KCHSC) [12]): 90%
- herbicidal effect STEME (Stellaria media (STEME) [13]): 100%
- herbicidal effect MATIN [14]: 90%
- herbicidal effect MATIN [15]: 100%
- herbicidal effect VERPE (Veronica persica (VERPE) [16]): 90%
- herbicidal effect ABUTH [17]: 100%
- herbicidal effect POAAN (Poa annua (POAAN)): 90%
- herbicidal effect STEME (Stellaria media (STEME) [18]): 100%

Compound: Cc1nn(C)c(=O)c(Oc2ccc(Br)cc2)c1O [Example I-068]
- herbicidal effect AMARE [2]: 90%
- herbicidal effect VERPE (Veronica persica (VERPE) [4]): 90%
- herbicidal effect KCHSC (Kochia scoparia (KCHSC) [5]): 90%
- herbicidal effect SETVI (Setaria viridis (SETVI) [19]): 90%
- herbicidal effect DIGSA [20]: 90%

Compound: Cc1nn(C)c(=O)c(Oc2cc(Cl)ccc2Br)c1O [Example I-091]
- herbicidal effect STEME (Stellaria media (STEME) [21]): 90%
- herbicidal effect MATIN [1]: 100%
- herbicidal effect AMARE [2]: 100%
- herbicidal effect LOLRI (Lolium rigidum (LOLRI) [3]): 100%
- herbicidal effect STEME (Stellaria media (STEME) [6]): 90%
- herbicidal effect LOLRI (Lolium rigidum (LOLRI) [7]): 100%
- herbicidal effect ABUTH [22]: 90%
- herbicidal effect MATIN [10]: 90%
- herbicidal effect AMARE [23]: 90%
- herbicidal effect STEME (Stellaria media (STEME) [13]): 100%
- herbicidal effect LOLRI (Lolium rigidum (LOLRI) [24]): 90%
- herbicidal effect STEME (Stellaria media (STEME) [18]): 100%

Compound: Cc1nn(C)c(=O)c(Oc2ccc(F)c(Cl)n2)c1O [Example I-052]
- herbicidal effect DIGSA [20]: 90%

Compound: CCOC(=O)Oc1c(C)nn(C)c(=O)c1Oc1cc(Cl)ccc1Cl [Example I-086]
- herbicidal effect STEME (Stellaria media (STEME) [21]): 90%
- herbicidal effect LOLRI (Lolium rigidum (LOLRI) [25]): 90%
- herbicidal effect MATIN [1]: 100%
- herbicidal effect AMARE [2]: 90%
- herbicidal effect LOLRI (Lolium rigidum (LOLRI) [3]): 100%
- herbicidal effect STEME (Stellaria media (STEME) [6]): 100%
- herbicidal effect LOLRI (Lolium rigidum (LOLRI) [7]): 90%
- herbicidal effect AMARE [8]: 100%
- herbicidal effect VERPE (Veronica persica (VERPE) [26]): 90%
- herbicidal effect AMARE [11]: 90%
- herbicidal effect MATIN [15]: 90%
- herbicidal effect ABUTH [17]: 90%
- herbicidal effect LOLRI (Lolium rigidum (LOLRI) [24]): 100%
- herbicidal effect STEME (Stellaria media (STEME) [18]): 100%

Compound: CCOC(=O)Oc1c(C)nn(C)c(=O)c1Oc1ccc(F)cc1C1CC1 [Example I-034]
- herbicidal effect STEME (Stellaria media (STEME) [21]): 90%
- herbicidal effect MATIN [1]: 100%
- herbicidal effect AMARE [2]: 90%
- herbicidal effect LOLRI (Lolium rigidum (LOLRI) [3]): 100%
- herbicidal effect VERPE (Veronica persica (VERPE) [4]): 90%
- herbicidal effect KCHSC (Kochia scoparia (KCHSC) [5]): 90%
- herbicidal effect STEME (Stellaria media (STEME) [6]): 90%
- herbicidal effect AMARE [8]: 100%
- herbicidal effect SETVI (Setaria viridis (SETVI) [27]): 90%
- herbicidal effect ABUTH [9]: 90%
- herbicidal effect AMARE [11]: 90%
- herbicidal effect DIGSA [20]: 90%
- herbicidal effect ECHCG [28]: 90%
- herbicidal effect MATIN [15]: 90%
- herbicidal effect ABUTH [17]: 90%
- herbicidal effect LOLRI (Lolium rigidum (LOLRI) [24]): 90%
